Reference: ChEMBL document CHEMBL1145849, “QSAR and the rational design of long-acting dual D2-receptor/beta 2-adrenoceptor agonists” (J Med Chem, 2003)

Tests used:
[1] = biological target: Beta-2 adrenergic receptor (Cavia porcellus) (UniProt Q8K4Z4)
Description: In vitro beta-2 duration was determined using electrically stimulated guinea-pig isolated trachea superfusion system

physchem [2] = assay: physchem
Description: Ionization constant (pKa)

[3] = biological target: Beta-2 adrenergic receptor (Cavia porcellus) (UniProt Q8K4Z4); conditions: Trachea
Description: Beta-2-adrenoceptor potency was determined in rings of guinea-pig isolated trachea

physchem [4] = conditions: octanol/water, pH 7.4, logD

Chain of Beta-2 adrenergic receptor (Cavia porcellus) (Q8K4Z4 whole entry, looked up): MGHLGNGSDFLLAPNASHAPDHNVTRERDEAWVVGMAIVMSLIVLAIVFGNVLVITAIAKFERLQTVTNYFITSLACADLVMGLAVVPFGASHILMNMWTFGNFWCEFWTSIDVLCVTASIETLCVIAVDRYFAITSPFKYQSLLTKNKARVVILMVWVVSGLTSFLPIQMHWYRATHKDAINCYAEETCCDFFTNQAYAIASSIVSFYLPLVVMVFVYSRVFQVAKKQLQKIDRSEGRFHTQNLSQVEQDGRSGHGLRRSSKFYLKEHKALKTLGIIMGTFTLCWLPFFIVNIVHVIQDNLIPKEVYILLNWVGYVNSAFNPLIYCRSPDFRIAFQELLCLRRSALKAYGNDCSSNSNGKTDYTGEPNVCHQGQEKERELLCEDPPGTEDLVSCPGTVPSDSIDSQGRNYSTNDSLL

SMILES | Beta2 duration [1] [min] | pKa (physchem [2]) | p[A]50 [3] | logD (physchem [4])
Cc1cc(C)cc(CCOCNS(=O)(=O)CCCNCCc2ccc(O)c3nc(O)sc23)c1 | > 180 | > 8 |  | 
CCN(CCCOCCOCCc1ccccc1)CCc1ccc(O)c2nc(O)sc12 | > 180 | > 8 |  | 
CC(C)(CCCCCOCCc1ccccc1)NCCc1ccc(O)c2nc(O)sc12 | > 180 | > 8 | 8.42 | 
O=S(=O)(CCCOCCc1nccc2ccccc12)CCNCCc1ccc(O)c2nc(O)sc12 | 50 | < 8 |  | 2.35
Oc1nc2c(O)ccc(CCNCCCCCOCCCc3ccccc3)c2s1 | > 180 | > 8 | 7 | 
O=S(=O)(CCCNCCc1ccc(O)c2nc(O)sc12)NCCSCCc1ccccc1 | 180 | > 8 |  | 1.77
Cc1cc(C)cc(CCOCCS(=O)(=O)NCCNCCc2ccc(O)c3nc(O)sc23)c1 | > 180 | > 8 |  | 2.59
O=S(=O)(CCCOCCNc1ccccc1)CCNCCc1ccc(O)c2nc(O)sc12 | 40 | < 8 |  | 
CN(CCNCCc1ccc(O)c2nc(O)sc12)C(=O)CCOCCc1ccccc1 | 116 |  | 8.29 | 
O=S(=O)(CCOCc1cccc2ccccc12)NCCCNCCc1ccc(O)c2nc(O)sc12 | 180 | > 8 |  | 1.69
CC(C)(CCCCOCCc1ccc([N+](=O)[O-])cc1)CNCCc1ccc(O)c2nc(O)sc12 | > 180 | > 8 | 6.35 | 
Oc1nc2c(O)ccc(CCNCCCCCOCCc3ccccc3)c2s1 | > 180 | > 8 | 7.8 | 
CC(C)(CCCCOCCc1ccc(N)cc1)CNCCc1ccc(O)c2nc(O)sc12 | > 180 | > 8 | 8.86 | 
O=S(=O)(CCCOCCc1cc2ccccc2o1)CCNCCc1ccc(O)c2nc(O)sc12 | 160 | < 8 |  | 2.86
CN(CCNCCc1ccc(O)c2[nH]c(=O)sc12)C(=O)CCOCCc1ccccc1 |  | > 8 |  | 1.52
CCCN(CCCOCCOCCc1ccccc1)CCc1ccc(O)c2nc(O)sc12 | > 180 | > 8 |  | 
CC(C)(CCCCOCCc1cccc(N)c1)CNCCc1ccc(O)c2nc(O)sc12 | > 180 | > 8 | 8.39 | 
C[C@@H](Cc1ccccc1)OCCCS(=O)(=O)CCNCCc1ccc(O)c2nc(O)sc12 | 180 | > 8 |  | 1.81
CS(=O)(=O)Nc1ccc(CCOCCCS(=O)(=O)CCNCCc2ccc(O)c3nc(O)sc23)cc1 | 40 | < 8 |  | 1.34
Cc1ncsc1CCOCCCS(=O)(=O)CCNCCc1ccc(O)c2nc(O)sc12 | 40 | < 8 |  | 1.44
NC(=O)Nc1ccc(CCOCCCCCCNCCc2ccc(O)c3nc(O)sc23)cc1 | 140 | > 8 | 9.2 | 
Oc1nc2c(O)ccc(CCNCCCSCCOCCc3cccc4ccccc34)c2s1 | > 180 | > 8 | 5.8 | 
Oc1nc2c(O)ccc(CCNCCCCCCOCCc3ccccn3)c2s1 | 109 | > 8 | 8.12 | 
Oc1nc2c(O)ccc(CCNCCCCCCOCCc3nccs3)c2s1 | > 180 | > 8 | 7.78 | 
O=S(=O)(CCCNCCc1ccc(O)c2nc(O)sc12)NCCOCCc1ccc(F)cc1 | 150 | > 8 |  | 1.57
O=S(=O)(CCCOCCSc1ccccc1)CCNCCc1ccc(O)c2nc(O)sc12 | 120 | < 8 |  | 2.68

SMILES | Beta2 duration [1] [min] | pKa (physchem [2]) | p[A]50 [3] | logD (physchem [4])
Oc1nc2c(O)ccc(CCNCCCSCCCOCCc3ccccc3)c2s1 | > 180 | > 8 | 7.32 | 
Oc1ccc(CCOCCCCCCNCCc2ccc(O)c3nc(O)sc23)cc1 | > 180 | > 8 | 8.81 | 
O=S(=O)(CCCNCCc1ccc(O)c2nc(O)sc12)NCCOCCSc1ccccc1 | 180 | > 8 |  | 1.84
O=S(=O)(CCCNCCc1ccc(O)c2nc(O)sc12)NCCOCCc1cccc(C(F)(F)F)c1 | > 180 | > 8 |  | 2.62
CN(CCCOCCOCCc1ccccc1)CCc1ccc(O)c2nc(O)sc12 | > 180 | > 8 |  | 
COc1ccc(CCOCCCS(=O)(=O)CCNCCc2ccc(O)c3nc(O)sc23)cc1 | 60 | < 8 |  | 
O=S(=O)(CCCNCCc1ccc(O)c2nc(O)sc12)NCCOCCc1cccc(Cl)c1 | 180 | > 8 |  | 1.92
O=S(=O)(CCCNCCc1ccc(O)c2nc(O)sc12)CCOCc1ccccc1 | 60 | > 8 |  | 1.15
CN(CCc1ccc(O)c2[nH]c(=O)sc12)CCN(C)C(=O)CCOCCc1ccccc1 |  | > 8 |  | 
Cc1ccc(CCCOCCS(=O)(=O)CCCNCCc2ccc(O)c3nc(O)sc23)s1 | > 180 | > 8 |  | 2.41
CSc1cccc(CCOCCS(=O)(=O)CCCNCCc2ccc(O)c3nc(O)sc23)c1 | 150 | > 8 |  | 1.63
Cc1ccccc1CCOCCCS(=O)(=O)CCNCCc1ccc(O)c2nc(O)sc12 | 160 | < 8 |  | 
O=S(=O)(CCCNCCc1ccc(O)c2nc(O)sc12)CCNCCc1ccccc1 | 18 | > 8 | 7.88 | 
CN(CCCNCCc1ccc(O)c2nc(O)sc12)S(=O)(=O)CCOCCc1ccccc1 | 60 | > 8 |  | 1.24
Cc1ccc(CCOCCCS(=O)(=O)CCNCCc2ccc(O)c3nc(O)sc23)nc1 | 40 | < 8 |  | 1.56
Cc1ccc(CCOCCNS(=O)(=O)CCCNCCc2ccc(O)c3nc(O)sc23)cc1 | > 180 | > 8 |  | 2.07
CC(C)(CCCCOCCc1ccc(O)cc1)CNCCc1ccc(O)c2nc(O)sc12 | > 180 | > 8 | 9.03 | 
N#Cc1ccc(CCOCCCS(=O)(=O)CCNCCc2ccc(O)c3nc(O)sc23)cc1 | 40 | < 8 |  | 2
O=S(=O)(CCCOCCc1ccc(F)cc1)CCNCCc1ccc(O)c2nc(O)sc12 | 67 | < 8 | 7.92 | 
CC(CCCCCOCCc1ccccc1)NCCc1ccc(O)c2nc(O)sc12 (stereo not given) | > 180 | > 8 | 8.08 | 
O=S(=O)(CCOCCCc1ccccc1)NCCNCCc1ccc(O)c2nc(O)sc12 | > 180 | > 8 |  | 2.22
C[C@@H](COCCCS(=O)(=O)CCNCCc1ccc(O)c2nc(O)sc12)c1ccccc1 | 60 | < 8 |  | 2.32
Nc1ccc(CCOCCCCCCNCCc2ccc(O)c3nc(O)sc23)cc1 | > 180 | > 8 | 9.4 | 
CN(CCc1ccc(O)c2nc(O)sc12)CCN(C)C(=O)CCOCCc1ccccc1 | > 180 |  |  | 
O=S(=O)(CCCOCCc1ccccc1)NCCNCCc1ccc(O)c2nc(O)sc12 | 180 | > 8 |  | 1.83
